Measured values reported in ChEMBL document CHEMBL2380238, “Synthesis, spectral and antimicrobial evaluation of some novel 1-methyl-3-alkyl-2,6-diphenylpiperidin-4-one oxime carbonates” (2013).
Values after ≈ are worked out from the molar mass of the structure shown. Active and inactive are the calls of the source. The calls are words filed in the database; no cut-off is given here.

Key:
Assay type in all cases: functional
Aspergillus flavus [1] = assay: Antifungal activity against Aspergillus flavus
Aspergillus flavus [2] = assay: Antifungal activity against Aspergillus flavus after 72 to 96 hrs by broth dilution method
Aspergillus niger [3] = assay: Antifungal activity against Aspergillus niger
Fusarium [4] = assay: Antifungal activity against Fusarium after 72 to 96 hrs by broth dilution method
Fusarium [5] = assay: Antifungal activity against Fusarium
Aspergillus niger [6] = assay: Antifungal activity against Aspergillus niger after 72 to 96 hrs by broth dilution method
Rhizopus [7] = assay: Antifungal activity against Rhizopus after 72 to 96 hrs by broth dilution method
Rhizopus [8] = assay: Antifungal activity against Rhizopus
Penicillium [9] = assay: Antifungal activity against Penicillium
Penicillium [10] = assay: Antifungal activity against Penicillium after 72 to 96 hrs by broth dilution method
Klebsiella pneumoniae [11] = assay: Antibacterial activity against Klebsiella pneumoniae
Klebsiella pneumoniae [12] = assay: Antibacterial activity against Klebsiella pneumoniae after 24 hrs by broth dilution method
Pseudomonas aeruginosa [13] = assay: Antibacterial activity against Pseudomonas aeruginosa
Escherichia coli [14] = assay: Antibacterial activity against Escherichia coli
Pseudomonas aeruginosa [15] = assay: Antibacterial activity against Pseudomonas aeruginosa after 24 hrs by broth dilution method
Escherichia coli [16] = assay: Antibacterial activity against Escherichia coli after 24 hrs by broth dilution method
Bacillus subtilis [17] = assay: Antibacterial activity against Bacillus subtilis
Bacillus subtilis [18] = assay: Antibacterial activity against Bacillus subtilis after 24 hrs by broth dilution method
Enterococcus faecalis [19] = assay: Antibacterial activity against Streptococcus faecalis
Enterococcus faecalis [20] = assay: Antibacterial activity against Streptococcus faecalis after 24 hrs by broth dilution method

MIC (Aspergillus flavus [2]) | MIC (Fusarium [4]) | MIC (Aspergillus niger [6]) | MIC (Rhizopus [7]) | MIC (Penicillium [10]) | MIC (Klebsiella pneumoniae [12]) | MIC (Pseudomonas aeruginosa [15]) | MIC (Escherichia coli [16]) | MIC (Bacillus subtilis [18]) | MIC (Enterococcus faecalis [20]) | Structure (SMILES) | inhibition zone (IZ) (Aspergillus flavus [1]) | inhibition zone (IZ) (Aspergillus niger [3]) | inhibition zone (IZ) (Fusarium [5]) | inhibition zone (IZ) (Rhizopus [8]) | inhibition zone (IZ) (Penicillium [9]) | inhibition zone (IZ) (Klebsiella pneumoniae [11]) | inhibition zone (IZ) (Pseudomonas aeruginosa [13]) | inhibition zone (IZ) (Escherichia coli [14]) | inhibition zone (IZ) (Bacillus subtilis [17]) | inhibition zone (IZ) (Enterococcus faecalis [19])
25 mg/L (≈ 60.3 µM) | 12.5 mg/L (≈ 30.1 µM) | 25 mg/L (≈ 60.3 µM) | 25 mg/L (≈ 60.3 µM) | 25 mg/L (≈ 60.3 µM) | 6.25 mg/L (≈ 15.1 µM) | 12.5 mg/L (≈ 30.1 µM) | 12.5 mg/L (≈ 30.1 µM) | 25 mg/L (≈ 60.3 µM) | 12.5 mg/L (≈ 30.1 µM) | CCC1/C(=N/OC(=O)OC(C)Cl)CC(c2ccccc2)N(C)C1c1ccccc1 (stereo not given) | 17 mm | 17 mm | 22 mm | 17 mm | 17 mm | 32 mm | 22 mm | 22 mm | 17 mm | 22 mm
100 mg/L (≈ 253 µM) | 200 mg/L (≈ 507 µM) | 200 mg/L (≈ 507 µM) | 200 mg/L (≈ 507 µM) | 200 mg/L (≈ 507 µM) | 200 mg/L (≈ 507 µM) | 200 mg/L (≈ 507 µM) | 12.5 mg/L (≈ 31.7 µM) | 12.5 mg/L (≈ 31.7 µM) | 50 mg/L (≈ 127 µM) | CCOC(=O)O/N=C1\CC(c2ccccc2)N(C)C(c2ccccc2)C1C(C)C (stereo not given) | 12 mm | inactive | inactive | inactive | inactive | inactive | inactive | 17 mm | 12 mm | 12 mm
200 mg/L (≈ 620 µM) | 200 mg/L (≈ 620 µM) | 200 mg/L (≈ 620 µM) | 50 mg/L (≈ 155 µM) | 100 mg/L (≈ 310 µM) | 200 mg/L (≈ 620 µM) | 200 mg/L (≈ 620 µM) | 50 mg/L (≈ 155 µM) | 25 mg/L (≈ 77.5 µM) | 50 mg/L (≈ 155 µM) | CC(C)C1/C(=N/O)CC(c2ccccc2)N(C)C1c1ccccc1 (stereo not given) | inactive | inactive | inactive | 12 mm | 12 mm | inactive | 12 mm | 17 mm | 12 mm | 12 mm
